How the values were obtained:
Format in all cases: cell-based, human
ARPE-19 cells = assay: Oxidative stress induced apoptosis / cell death in ARPE-19 cells; details: for concentration dependent cytoprotection (FIG. 5C): ARPE-19 under OS
Description: FIG. 5. (A) Effect of PD146176 on VLC-PUFA-inhibited apoptosis induced by OS in ARPE-19 cells. […] It is evident that 32:6 and 34:6 LCAF were able to induce a substantial amount (55 and 48% respectively) of neuroprotection compared to PD 146176 (22%) when the stressed cells were treated with 5 μm of 15-LOX-D1 inhibitor. It can be concluded that since PD146176 is the inhibitor of 15-lipooxygenase enzyme, it might be protecting the stressed RPE cells by accumulating neuroprotective agents inside the cells. (B) Comparison of cytoprotective capacities of NPD1, C32:6 and C34:6 VLC-PUFA on oxidative stress-induced apoptosis in 15-LOX-1 cells. Shown here is the comparison of neuroprotection in a 15-LOX-1-deficient cell line under oxidative stress with 32:6 and 34:6 VLC-PUFA along with NPD1. 32:6 and 34:6 LCAF were able to induce neuroprotection (45% and 40% respectively), as compared to oxidative stress (90%) under this condition. (C) Concentration dependent cytoprotection by C32:6 and C34:6 VLC-PUFA in oxidative-stress induced ARPE-19 cells. A concentration (50-500 nM) kinetic of cytoprotection induced by LCAF 32:6 and 34:6 in RPE cell culture under OS was shown here. […] We decided to use 250 nM concentrations of 32:6 and 34:6 LCAF in subsequent experiments. (D) Selected images of alive and dead cells from this study (control, OS, treatment with C32:6).
FIG. 5—(A) Effect of PD146176 on VLC-PUFA inhibited apoptosis induced by OS in ARPE-19 cells. […] It is evident that 32:6 and 34:6 LCAF were able to induce a substantial amount (55 and 48% respectively) of neuroprotection compared to PD 146176 (22%) when the stressed cells were treated with 5 μm of 15-LOX-D1 inhibitor. It can be concluded that since PD146176 is the inhibitor of 15-lipooxygenase enzyme, it might be protecting the stressed RPE cells by accumulating neuroprotective agents inside the cells. (B) Comparison of cytoprotective capacities of NPD1, C32:6 and C34:6 VLC-PUFA on oxidative stress-induced apoptosis in 15-LOX-1 cells. Shown here is the comparison of neuroprotection in a 15-LOX-1-deficient cell line under oxidative stress with 32:6 and 34:6 VLC-PUFA along with NPD1. 32:6 and 34:6 VLC-PUFA were able to induce neuroprotection (45% and 40% respectively), as compared to oxidative stress (90%) under this condition. (C) Concentration dependent cytoprotection by C32:6 and C34:6 VLC-PUFA in oxidative-stress induced ARPE-19 cells. A concentration (50-500 nM) kinetic of cytoprotection induced by VLC-PUFA 32:6 and 34:6 in RPE cell culture under OS was shown here. […] We decided to use 250 nM concentrations of 32:6 and 34:6 VLC-PUFA in subsequent experiments. (D) Selected images of alive and dead cells from this study (control, OS, treatment with C32:6).

Bax = Bax expression in LOX-D RPE cells under oxidative stress
Description: (§1) FIG. 8. (A) Bcl-xL-upregulation by elovanoids ELV1 and ELV2 in ARPE-19 cells under stress. Bcl-xL is the antiapoptotic Bcl2 family protein. Like proapoptotic proteins Bid and Bim, the effect of elovaniod precursors on the antiapoptotic protein Bcl-xL was tested in this figure in RPE cells under OS. […] (B) Effect of NPD1, ELV1 and ELV2 on Bax expression in LOX-D cells under stress. Proapoptotic Bax was tested in this figure. […] C) VLC-PUFA and elovanoids ELV1 and ELV2 mediated effect on Bax upregulation in ARPE-19 cells under stress. In this experiment, elovanoid precursors along with VLC-PUFA were tested on the downregulation of the Bax protein in RPE cells under stress.
as §1, with “8—(A)” for “8. (A)”

Bid = Bid protein by western blot in ARPE-19 cells under oxidative stress
Source text: FIG. 6. (A) VLC-PUFA and elovanoids ELV1 and ELV2 mediated effect on Bid upregulation in ARPE-19 cells under stress. […] (B) VLC-PUFA and ELV1 and ELV2 compounds mediated upregulation of Bid in ARPE-19 cells under stress.
FIG. 6—(A) VLC-PUFA and elovanoids ELV1 and ELV2 mediated effect on Bid upregulation in ARPE-19 cells under stress. […] (B) VLC-PUFA and ELV1 and ELV2 compounds mediated upregulation of Bid in ARPE-19 cells under stress.

| Structure (SMILES) | concentration dependent cytoprotection (FIG. 5C) (ARPE-19 cells; 250 nM) | concentration dependent cytoprotection (FIG. 5C) (ARPE-19 cells; 500 nM) | protection against OS in RPE cells (summary, FIGS. 4-10) (ARPE-19 cells; RPE cells) | concentration dependent cytoprotection (FIG. 5C) (ARPE-19 cells; starting from 50 nM) | neuroprotection (FIG. 5A) (ARPE-19 cells; stressed ARPE-19 cells treated with 5 μm of 15-LOX-D1 inhibitor PD146176) [%] | effect on Bax upregulation by OS (FIG. 8B) (Bax) | effect on Bid protein upregulated by OS (FIG. 6) (Bid) |
| --- | --- | --- | --- | --- | --- | --- | --- |
| CC/C=C\C/C=C\C/C=C\C/C=C\C/C=C\C/C=C\CCCCCCCCCCCCCCC(=O)O [C34:6] | very good intermediate effect | maximum effect | protective against OS | gradual decrease of cell deaths | 48 | – | – |
| CC/C=C\C[C@H](O)\C=C/C=C/C=C/[C@H](O)C/C=C\C/C=C\CCCCCCCCCCCCCCC(=O)O [ELV2, (16Z,19Z,22R,23E,25E,27Z,29S,31Z)-22,29-dihydroxytetratriaconta-16,19,23,25,27,31-hexaenoic acid] | – | – | – | – | – | potent downregulation | potent downregulation |

From US12565467B2, “Compounds, compositions, and methods for the treatment of inflammatory, degenerative, and neurodegenerative diseases” (Board of Supervisors of Louisiana State University and …, priority 2015, dated 2026)
